From patent US9580413B2, “Substituted pyrrolidines as ROS tyrosine kinase inhibitors” (NIPPON SHINYAKU CO., LTD., priority 2012, dated 2017) come the findings set out here.

pIC50: −log10 of the molar value. Where a name gives a salt, the structure may show the parent alone.

One assay deals with T1, ROS tyrosine kinase (Homo sapiens, UniProt P08922).
T1 construct: purchased Carna Biosciences, Inc
The assay can be described thus: ROS tyrosine kinase inhibitory activity test (ELISA). The assay is classed as biochemical, humans. The conditions noted are these: 25 μM ATP substrate solution, 30° C., one hour. On the procedure: (§1) 1. Preparation of Test Substance:
(§2) A test substance was dissolved in dimethyl sulfoxide (DMSO) to 10 mM and further diluted with DMSO to concentrations of 100-fold of the concentrations to be measured (100, 10, 1, 0.1, and 0.01 μM). Furthermore, the resultant was diluted with an assay buffer to 20-fold, thereby preparing a solution as a test substance solution. A solution prepared by diluting DMSO with an assay buffer to 20-fold was used as a negative control. A buffer containing 15 mM Tris-Cl (pH 7.5), 0.01 (v/v) % Tween-20, and 1 mM dithiothreitol was used as the assay buffer.
(§3) 2. Measurement of ROS Tyrosine Kinase Activity and JAK2 Tyrosine Kinase Activity:
(§4) The activity was measured by adopting the ELISA method. […] Finally, an ROS kinase or a JAK2 kinase (derived from humans, Carna Biosciences, Inc.) (diluted with the assay buffer to 0.25 nM) was added to the plate at 20 μL per well, and the resulting mixture was stirred. A reaction was performed at 30° C. for one hour. After the plate was washed 4 times with a washing buffer (50 mM Tris-Cl (pH 7.5), 150 mM NaCl, and 0.02 (v/v) % Tween-20), a blocking buffer (0.1% bovine serum albumin, 50 mM Tris-Cl (pH 7.5), 150 mM NaCl, and 0.02 (v/v) % Tween-20) was added to the plate at 150 μL per well, and incubated at 30° C. for 30 minutes. The blocking buffer was then removed, and a horse radish peroxidase-labeled anti-phosphorylated tyrosine antibody (BD Biosciences, Inc.) (diluted with the blocking buffer to 10,000-fold) was added to the plate at 100 μL per well, and the plate was incubated at 30° C. for 30 minutes. After the plate was washed 4 times with the washing buffer, a 3,3′,5,5′-tetramethylbenzidine solution (Sigma-Aldrich Co., Ltd.) was added to the plate at 100 μL per well to develop the color for 10 minutes. The reaction was stopped by adding 0.1 M sulfuric acid at 100 μL per well. An absorbance at 450 nm was measured with a microplate reader (Model 3550, manufactured by BIO-RAD, Benchmark, manufactured by BIO-RAD, or iMARK, manufactured by BIO-RAD).
(§5) 3. Analysis of Measurement Results:
(§6) A non-linear regression analysis was performed for the measured absorbance with an SAS system (SAS Institute Inc.), and a concentration of each of the test substances of inhibiting the ROS tyrosine kinase activity or JAK2 tyrosine kinase activity at 50% (IC50) was calculated. The inhibitory activity (IC50, nM) of each of the test substances against the ROS tyrosine kinase or JAK2 tyrosine kinase is shown in Tables 6 to 8.
For orientation: ELISA stands for enzyme-linked immunosorbent assay.

Another assay has as its target T2, JAK2 tyrosine kinase (Homo sapiens, UniProt O60674).
T2 construct: purchased Carna Biosciences, Inc
The assay can be described thus: JAK2 tyrosine kinase inhibitory activity test (ELISA). To be noted: 25 μM ATP substrate solution, 30° C., one hour. The assay is classed as biochemical, humans. The method, then: as §1, §2, §3, §4, §5, §6

T1 sequence (P08922 28-2347): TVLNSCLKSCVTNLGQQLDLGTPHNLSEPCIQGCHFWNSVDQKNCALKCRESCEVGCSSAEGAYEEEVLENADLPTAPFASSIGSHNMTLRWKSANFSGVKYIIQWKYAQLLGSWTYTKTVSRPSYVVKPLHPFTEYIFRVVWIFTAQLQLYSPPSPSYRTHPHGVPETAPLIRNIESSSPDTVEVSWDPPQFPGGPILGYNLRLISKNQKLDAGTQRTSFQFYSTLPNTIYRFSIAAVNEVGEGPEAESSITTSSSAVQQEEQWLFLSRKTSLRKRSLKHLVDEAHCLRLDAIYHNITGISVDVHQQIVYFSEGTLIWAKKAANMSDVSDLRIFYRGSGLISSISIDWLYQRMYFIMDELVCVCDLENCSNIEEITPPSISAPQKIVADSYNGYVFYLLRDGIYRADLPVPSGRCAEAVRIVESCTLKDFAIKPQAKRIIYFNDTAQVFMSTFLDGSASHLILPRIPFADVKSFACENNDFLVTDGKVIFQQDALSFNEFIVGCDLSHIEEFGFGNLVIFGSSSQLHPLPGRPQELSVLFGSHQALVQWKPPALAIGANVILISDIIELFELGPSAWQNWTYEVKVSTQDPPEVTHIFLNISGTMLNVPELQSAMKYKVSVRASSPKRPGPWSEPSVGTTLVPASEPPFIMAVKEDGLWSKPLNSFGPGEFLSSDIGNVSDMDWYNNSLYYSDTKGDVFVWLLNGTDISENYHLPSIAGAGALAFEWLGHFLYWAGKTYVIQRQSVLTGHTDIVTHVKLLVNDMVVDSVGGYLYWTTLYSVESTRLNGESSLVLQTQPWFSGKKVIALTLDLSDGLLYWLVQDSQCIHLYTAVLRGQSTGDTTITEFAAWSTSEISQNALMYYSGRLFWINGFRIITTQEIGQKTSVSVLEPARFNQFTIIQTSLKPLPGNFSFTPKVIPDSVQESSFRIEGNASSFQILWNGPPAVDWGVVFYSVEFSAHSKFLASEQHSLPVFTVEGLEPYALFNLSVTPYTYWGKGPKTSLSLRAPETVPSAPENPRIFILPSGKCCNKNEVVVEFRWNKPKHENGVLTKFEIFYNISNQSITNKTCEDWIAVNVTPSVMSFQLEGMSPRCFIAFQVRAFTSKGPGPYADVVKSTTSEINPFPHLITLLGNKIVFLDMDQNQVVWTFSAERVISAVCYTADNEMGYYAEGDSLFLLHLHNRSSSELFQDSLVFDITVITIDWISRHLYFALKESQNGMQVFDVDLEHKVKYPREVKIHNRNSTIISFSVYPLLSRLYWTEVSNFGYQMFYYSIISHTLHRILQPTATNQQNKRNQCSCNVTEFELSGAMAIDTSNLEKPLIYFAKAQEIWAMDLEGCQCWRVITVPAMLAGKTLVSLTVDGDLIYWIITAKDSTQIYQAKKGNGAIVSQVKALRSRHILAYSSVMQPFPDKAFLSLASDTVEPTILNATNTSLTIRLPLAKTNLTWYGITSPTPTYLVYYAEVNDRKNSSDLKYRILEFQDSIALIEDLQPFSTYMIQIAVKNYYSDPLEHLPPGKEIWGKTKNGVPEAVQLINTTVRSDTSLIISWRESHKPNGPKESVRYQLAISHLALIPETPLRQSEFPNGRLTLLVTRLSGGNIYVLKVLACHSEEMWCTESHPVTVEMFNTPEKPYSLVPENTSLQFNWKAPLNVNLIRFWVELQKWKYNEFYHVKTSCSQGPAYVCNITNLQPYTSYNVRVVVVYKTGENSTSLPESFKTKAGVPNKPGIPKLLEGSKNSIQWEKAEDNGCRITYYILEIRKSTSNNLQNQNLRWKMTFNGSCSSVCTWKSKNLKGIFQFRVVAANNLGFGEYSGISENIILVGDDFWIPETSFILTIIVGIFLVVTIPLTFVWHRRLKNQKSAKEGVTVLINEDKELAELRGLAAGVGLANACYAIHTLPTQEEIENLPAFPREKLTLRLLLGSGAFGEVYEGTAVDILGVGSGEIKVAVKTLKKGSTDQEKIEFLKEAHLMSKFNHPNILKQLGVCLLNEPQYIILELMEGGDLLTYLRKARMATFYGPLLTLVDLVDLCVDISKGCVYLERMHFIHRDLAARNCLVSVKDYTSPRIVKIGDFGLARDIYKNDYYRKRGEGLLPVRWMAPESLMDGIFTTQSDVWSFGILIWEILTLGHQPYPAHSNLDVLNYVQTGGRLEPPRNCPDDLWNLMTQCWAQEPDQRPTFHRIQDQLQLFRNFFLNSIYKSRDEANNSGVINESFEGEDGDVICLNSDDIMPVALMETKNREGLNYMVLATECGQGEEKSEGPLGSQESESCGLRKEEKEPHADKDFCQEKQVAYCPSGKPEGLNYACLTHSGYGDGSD
T2 sequence (O60674 whole entry): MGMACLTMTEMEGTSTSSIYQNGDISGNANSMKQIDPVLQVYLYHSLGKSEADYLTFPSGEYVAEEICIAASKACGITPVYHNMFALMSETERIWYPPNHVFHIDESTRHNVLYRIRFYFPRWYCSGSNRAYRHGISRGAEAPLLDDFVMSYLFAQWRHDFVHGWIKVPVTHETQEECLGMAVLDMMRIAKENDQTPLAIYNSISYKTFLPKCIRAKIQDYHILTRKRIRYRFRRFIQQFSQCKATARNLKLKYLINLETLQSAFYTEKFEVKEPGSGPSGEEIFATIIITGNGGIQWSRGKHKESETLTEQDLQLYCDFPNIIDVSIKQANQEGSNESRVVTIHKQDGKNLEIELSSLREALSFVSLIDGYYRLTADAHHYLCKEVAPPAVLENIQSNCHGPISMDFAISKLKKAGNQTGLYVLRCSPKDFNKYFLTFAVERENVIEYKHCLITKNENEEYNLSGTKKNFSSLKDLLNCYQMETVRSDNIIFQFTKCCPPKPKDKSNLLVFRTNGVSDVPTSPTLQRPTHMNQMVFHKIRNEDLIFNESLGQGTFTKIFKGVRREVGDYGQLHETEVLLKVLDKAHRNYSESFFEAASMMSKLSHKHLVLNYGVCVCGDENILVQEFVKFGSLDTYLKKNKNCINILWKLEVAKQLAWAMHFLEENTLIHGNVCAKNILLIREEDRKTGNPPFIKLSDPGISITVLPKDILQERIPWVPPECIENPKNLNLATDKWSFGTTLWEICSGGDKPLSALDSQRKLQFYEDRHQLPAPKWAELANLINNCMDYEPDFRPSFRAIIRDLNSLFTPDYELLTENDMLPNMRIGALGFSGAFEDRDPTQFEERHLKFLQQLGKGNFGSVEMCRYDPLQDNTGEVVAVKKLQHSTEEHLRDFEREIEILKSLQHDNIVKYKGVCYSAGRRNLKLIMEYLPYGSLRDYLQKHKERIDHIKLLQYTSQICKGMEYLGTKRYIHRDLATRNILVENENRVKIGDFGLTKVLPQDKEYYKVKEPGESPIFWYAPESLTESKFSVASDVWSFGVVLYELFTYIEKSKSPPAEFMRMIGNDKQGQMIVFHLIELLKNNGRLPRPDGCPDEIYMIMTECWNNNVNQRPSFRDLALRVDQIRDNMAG

`Cc1ccc(C2CCCN2c2ncc(C)c(Nc3ncc(C#N)s3)n2)cc1` (centres unmarked) [Example 2, 2-({5-Methyl-2-[2-(4-methylphenyl)pyrrolidin-1-yl]pyrimidin-4-yl}amino)-1,3-thiazole-5-carbonitrile]: the pIC50 (in general, −log10 of the IC50, conventionally taken in molar units) was 8.49 at ROS tyrosine kinase and 6.57 against JAK2 tyrosine kinase.

For `COc1c(Nc2ncc(C#N)s2)nc(N2CCCC2c2ccc(C)cc2)nc1-c1cncnc1` (centres unmarked) [Example 3, 2-({5-Methoxy-2-[2-(4-methylphenyl)pyrrolidin-1-yl]-4,5′-bipyrimidin-6-yl}amino)-1,3-thiazole-5-carbonitrile], the negative-log IC50 (pIC50) is 8.07 on ROS tyrosine kinase and below 6.00 against JAK2 tyrosine kinase.

`COc1c(Nc2ncc(C#N)s2)nc(N2CCCC2c2ccc(C)cc2)nc1-c1cccnc1` (centres unmarked) [Example 5, 2-({5-Methoxy-2-[2-(4-methylphenyl)pyrrolidin-1-yl]-6-(pyridin-3-yl)pyrimidin-4-yl}amino)-1,3-thiazole-5-carbonitrile]: the pIC50 on ROS tyrosine kinase is 8.09; against JAK2 tyrosine kinase it was below 6.00.

On to `Cc1ccc(C2CCCN2c2nc(Nc3ncc(C#N)s3)c(C)c(-c3cnn(C)c3)n2)cc1` (centres unmarked) [Example 8, 2-({5-Methyl-2-[2-(4-methylphenyl)pyrrolidin-1-yl]-6-(1-methyl-1H-pyrazol-4-yl)pyrimidin-4-yl}amino)-1,3-thiazole-5-carbonitrile], for which the results for the pIC50 on ROS tyrosine kinase and at JAK2 tyrosine kinase were 8.41 and below 6.00, respectively.

Turning to `COc1c(Nc2ncc(C#N)s2)nc(N2CCC[C@H]2c2ccc(C)cc2)nc1-c1cnn(C)c1` [Example 10, 2-({5-Methoxy-2-[(2S)-2-(4-methylphenyl)pyrrolidin-1-yl]-6-(l-methyl-1H-pyrazol-4-yl)pyrimidin-4-yl}amino)-1,3-thiazole-5-carbonitrile], the values for the negative-log IC50 (pIC50) on ROS tyrosine kinase and against JAK2 tyrosine kinase were 8.96 and 6.59, respectively.

Consider `COc1cc(C)ccc1C1CCCN1c1ncc(OC)c(Nc2ncc(C#N)s2)n1` (centres unmarked) [Example 14, 2-({5-Methoxy-2-[2-(2-methoxy-4-methylphenyl)pyrrolidin-1-yl]pyrimidin-4-yl}amino)-1,3-thiazole-5-carbonitrile], for which the negative-log IC50 (pIC50) at ROS tyrosine kinase was 8.60; on JAK2 tyrosine kinase, 6.46.

For the compound `Cc1ccc(C2CCCN2c2nc(Nc3ncc(C#N)s3)c(C)c(-c3ccc(O)nc3)n2)cc1` (centres unmarked) [Example 16, 2-({6-(6-Hydroxypyridin-3-yl)-5-methyl-2-[2-(4-methylphenyl)pyrrolidin-1-yl]pyrimidin-4-yl}amino)-1,3-thiazole-5-carbonitrile], the figures for the negative logarithm of the IC50 (pIC50) against ROS tyrosine kinase and against JAK2 tyrosine kinase were 8.82 and 7.44, respectively.

`Cc1ccc(C2CCCN2c2nc(C)c(Br)c(Nc3ncc(C#N)s3)n2)cc1` (centres unmarked) [Example 17, 2-({5-Bromo-6-methyl-2-[2-(4-methylphenyl)pyrrolidin-1-yl]pyrimidin-4-yl}amino)-1,3-thiazole-5-carbonitrile]: the pIC50 at ROS tyrosine kinase was 7.41; at JAK2 tyrosine kinase, below 6.00.

In the case of `COc1c(Nc2ncc(C#N)s2)nc(N2CCCC2c2ccc(C)cc2)nc1C1CC1` (centres unmarked) [Example 18, 2-({6-Cyclopropyl-5-methoxy-2-[2-(4-methylphenyl)pyrrolidin-1-yl]pyrimidin-4-yl}amino)-1,3-thiazole-5-carbonitrile], the pIC50 was 6.92 on ROS tyrosine kinase and below 6.00 at JAK2 tyrosine kinase.

As to `Cc1ccc([C@@H]2CCCN2c2cnc(C)c(Nc3ncc(C#N)s3)n2)cc1` [Example 20, 2-({3-Methyl-6-[(2S)-2-(4-methylphenyl)pyrrolidin-1-yl]pyrazin-2-yl}amino)-1,3-thiazole-5-carbonitrile hydrochloride], the negative logarithm of the IC50 (pIC50) is 8.96 on ROS tyrosine kinase and 6.60 against JAK2 tyrosine kinase.

`N#Cc1cnc(Nc2nc(N3CCCC3c3ccc(F)cc3)cnc2-c2cnco2)s1` (centres unmarked) [Example 21, 2-({6-[2-(4-Fluorophenyl)pyrrolidin-1-yl]-3-(1,3-oxazol-5-yl)pyrazin-2-yl}amino)-1,3-thiazole-5-carbonitrile]: the pIC50 at ROS tyrosine kinase is 7.89; against JAK2 tyrosine kinase, below 6.00.

As to `N#Cc1cnc(Nc2nc(N3CCCC3c3ccc(F)cc3)cnc2-c2cncnc2)s1` (centres unmarked) [Example 22, 2-({6-[2-(4-Fluorophenyl)pyrrolidin-1-yl]-3-(pyrimidin-5-yl)pyrazin-2-yl}amino)-1,3-thiazole-5-carbonitrile], the pIC50 is 7.33 against ROS tyrosine kinase and below 6.00 against JAK2 tyrosine kinase.

Turning to `COc1cc(C)ccc1C1CCCN1c1cnc(C2CC2)c(Nc2ncc(C#N)s2)n1` (centres unmarked) [Example 23, 2-({3-Cyclopropyl-6-[2-(2-methoxy-4-methylphenyl)pyrrolidin-1-yl]pyrazin-2-yl}amino)-1,3-thiazole-5-carbonitrile], the results for the pIC50 on ROS tyrosine kinase and against JAK2 tyrosine kinase were 8.06 and below 6.00, respectively.

For `COc1ccccc1C1CCCN1c1cnc(C2CC2)c(Nc2ncc(C#N)s2)n1` (centres unmarked) [Example 24, 2-({3-Cyclopropyl-6-[2-(2-methoxyphenyl)pyrrolidin-1-yl]pyrazin-2-yl}amino)-1,3-thiazole-5-carbonitrile], the pIC50 on ROS tyrosine kinase was 8.18; against JAK2 tyrosine kinase it was 6.68.

As for `N#Cc1cnc(Nc2nc(N3CCCC3c3ccc(F)cc3)cnc2-c2ccoc2)s1` (centres unmarked) [Example 25, 2-({6-[2-(4-Fluorophenyl)pyrrolidin-1-yl]-3-(furan-3-yl)pyrazin-2-yl}amino)-1,3-thiazole-5-carbonitrile], the pIC50 is 7.59 against ROS tyrosine kinase and below 6.00 at JAK2 tyrosine kinase.

Take `Cn1cc(-c2ncc(N3CCCC3c3ccc(F)cc3)nc2Nc2ncc(C#N)s2)cn1` (centres unmarked) [Example 28, 2-({6-[2-(4-Fluorophenyl)pyrrolidin-1-yl]-3-(1-methyl-1H-pyrazol-4-yl)pyrazin-2-yl}amino)-1,3-thiazole-5-carbonitrile]: the values for the negative logarithm of the IC50 (pIC50) on ROS tyrosine kinase and on JAK2 tyrosine kinase were 7.29 and below 6.00, respectively.

With `COc1cc(C)ccc1C1CCCN1c1cncc(Nc2ncc(C#N)s2)n1` (centres unmarked) [Example 30, 2-({6-[2-(2-Methoxy-4-methylphenyl)pyrrolidin-1-yl]pyrazin-2-yl}amino)-1,3-thiazole-5-carbonitrile], the pIC50 against ROS tyrosine kinase is 9.30; on JAK2 tyrosine kinase it was 7.16.

As to `Cc1cnc(Nc2nc(N3CCCC3c3ccc(Cl)cc3)cnc2C2CC2)s1` (centres unmarked) [Example 31, 6-[2-(4-Chlorophenyl)pyrrolidin-1-yl]-3-cyclopropyl-N-(5-methyl-1,3-thiazol-2-yl)pyrazine-2-amine], the pIC50 is 8.28 on ROS tyrosine kinase and 6.41 at JAK2 tyrosine kinase.

Consider `COc1cc(C2CCCN2c2cncc(Nc3ncc(C#N)s3)n2)ccc1C` (centres unmarked) [Example 33, 2-({6-[2-(3-Methoxy-4-methylphenyl)pyrrolidin-1-yl]pyrazin-2-yl}amino)-1,3-thiazole-5-carbonitrile], for which the values for the pIC50 on ROS tyrosine kinase and on JAK2 tyrosine kinase were 8.66 and 6.72, respectively.

Regarding `Cc1ccc([C@@H]2CCCN2c2cnc(C3CC3)c(Nc3ncc(C#N)s3)n2)cc1` [Example 35, 2-({3-Cyclopropyl-6-[(2S)-2-(4-methylphenyl)pyrrolidin-1-yl]pyrazin-2-yl}amino)-1,3-thiazole-5-carbonitrile], the pIC50 was 8.54 against ROS tyrosine kinase and below 6.00 at JAK2 tyrosine kinase.

As for `N#Cc1cnc(Nc2nc(N3CCC[C@H]3c3ccc(Cl)cc3)cnc2C2CC2)s1` [Example 36, 2-({6-[(2S)-2-(4-Chlorophenyl)pyrrolidin-1-yl]-3-cyclopropylpyrazin-2-yl}amino)-1,3-thiazole-5-carbonitrile], the pIC50 at ROS tyrosine kinase is 9.00; at JAK2 tyrosine kinase, 6.62.

As to `COc1ccc(C2CCCN2c2cncc(Nc3ncc(C#N)s3)n2)cc1` (centres unmarked) [Example 37, 2-({6-[2-(4-Methoxyphenyl)pyrrolidin-1-yl]pyrazin-2-yl}amino)-1,3-thiazole-5-carbonitrile], the negative-log IC50 (pIC50) was 7.89 on ROS tyrosine kinase and 6.25 on JAK2 tyrosine kinase.

For `COc1cccc(C2CCCN2c2cncc(Nc3ncc(C#N)s3)n2)c1` (centres unmarked) [Example 38, 2-({6-[2-(3-Methoxyphenyl)pyrrolidine-1-yl]pyrazin-2-yl}amino)-1,3-thiazole-5-carbonitrile], the negative logarithm of the IC50 (pIC50) against ROS tyrosine kinase is 7.74; against JAK2 tyrosine kinase, 6.21.

For `N#Cc1cnc(Nc2nc(N3CCCC3c3ccc(F)cc3)cnc2C2CC2)s1` (centres unmarked) [Example 40, 2-({3-Cyclopropyl-6-[2-(4-fluorophenyl)pyrrolidin-1-yl]pyrazin-2-yl}amino)-1,3-thiazole-5-carbonitrile], the pIC50 against ROS tyrosine kinase is 8.68; against JAK2 tyrosine kinase, 6.64.

Turning to `Cc1ncc(N2CCCC2c2ccc(F)cc2)nc1Nc1ncc(C#N)s1` (centres unmarked) [Example 41, 2-({6-[2-(4-Fluorophenyl)pyrrolidin-1-yl]-3-methylpyrazin-2-yl}amino)-1,3-thiazole-5-carbonitrile], the pIC50 is 9.15 against ROS tyrosine kinase and 7.68 against JAK2 tyrosine kinase.
